Source: publication PMC2409929 (British Journal of Cancer, 2004)
Where two headings read alike, the source gives them in different places. Marks after values point to notes of the source that are not given here.

Legend:
[1] = tested on: patients with metastatic colorectal cancer; experiment: Toxicity graded by NCI-CTC in the phase II trial; format: in vivo, human; details: for Anaemia, Grade 3–4, %Patients / Anaemia, all grades, %Patients / Leukocytopenia, Grade 3–4, %Patients / Leukocytopenia, all grades, %Patients / Neutropenia, Grade 3–4, %Patients / Neutropenia, all grades, %Patients / Thrombocytopenia, Grade 3–4, %Patients / Thrombocytopenia, all grades, %Patients: worst grade during study
Description: Haematology was checked weekly.
Otherwise, they were analysed by nonparametric methods. […] All tests for significance were two-tailed.

[2] = 140 mg m^−2: 10 mg m^−2 irinotecan as 14-day prolonged infusions, N=6, mean±s.d.; ref 16 (Herben et al, 1999); cited from earlier work
[3] = tested on: patients with colorectal cancer; details: same schedule as arm A (350 mg m^−2 q3 weeks), cited from earlier work
[4] = arm A (350 mg m^−2 90-min i.v. q3 weeks)
[5] = arm A (350 mg m^−2 90-min i.v. q3 weeks), possibly or probably related
[6] = arm B (125 mg m^−2 90-min i.v. weekly × 4 q6 weeks)
[7] = arm B (125 mg m^−2 90-min i.v. weekly × 4 q6 weeks), possibly or probably related
[8] = arm C (250 mg m^−2 90-min i.v. q2 weeks)
[9] = arm C (250 mg m^−2 90-min i.v. q2 weeks), possibly or probably related
[10] = arm D (10 mg m^−2 day^−1 14-day continuous infusion q3 weeks)
[11] = arm D (10 mg m^−2 day^−1 14-day continuous infusion q3 weeks), possibly or probably related

## CCc1c2c(nc3ccc(OC(=O)N4CCC(N5CCCCC5)CC4)cc13)-c1cc3c(c(=O)n1C2)COC(=O)[C@]3(O)CC [irinotecan]
[1]; [4]
  Anaemia, Grade 3–4, %Cycles: 1%
  Anaemia, all grades, %Cycles: 92%
  Episodes of grade 3–4 neutropenia with duration <8 days: 53%
  Febrile neutropenia, %Patients: 75%
  Leukocytopenia, Grade 3–4, %Cycles: 15%
  Leukocytopenia, all grades, %Cycles: 70%
  Neutropenia, Grade 3–4, %Cycles: 21%
  Neutropenia, all grades, %Cycles: 65%
  Neutropenic infection, %Cycles: 1%
  Neutropenic infection, %Patients: 2%
  Number of patients with at least one grade 3–4 adverse event possibly or probably related to irinotecan: 12
  Patients with at least one grade 3–4 adverse event possibly or probably related to irinotecan, %: 29%
  Thrombocytopenia, Grade 3–4, %Cycles: 0/0%
  Thrombocytopenia, all grades, %Cycles: 14%
  Anaemia, Grade 3–4, %Patients: 2%
  Anaemia, all grades, %Patients: 98%
  Leukocytopenia, Grade 3–4, %Patients: 20%
  Leukocytopenia, all grades, %Patients: 73%
  Neutropenia, Grade 3–4, %Patients: 34%
  Neutropenia, all grades, %Patients: 73%
  Thrombocytopenia, Grade 3–4, %Patients: 0/0%
  Thrombocytopenia, all grades, %Patients: 24%
[1]; [5]
  Alopecia, all grades, % of patients: 71 ^b %
  Anorexia, all grades, % of patients: 12%
  Cholinergic syndrome, all grades, % of patients: 68 ^a %
  Diarrhoea, Grade 3–4, % of patients: 10%
  Diarrhoea, all grades, % of patients: 88%
  Fatigue, Grade 3–4, % of patients: 7%
  Fatigue, all grades, % of patients: 51%
  Fever in absence of infection, Grade 3–4, % of patients: 2%
  Fever in absence of infection, all grades, % of patients: 12%
  Gastrointestinal pain, Grade 3–4, % of patients: 2%
  Gastrointestinal pain, all grades, % of patients: 17%
  Infection, Grade 3–4, % of patients: 2%
  Infection, all grades, % of patients: 7%
  Nausea, Grade 3–4, % of patients: 15%
  Nausea, all grades, % of patients: 73%
  Vomiting, Grade 3–4, % of patients: 10%
  Vomiting, all grades, % of patients: 54%
[1]; arm A (350 mg m^−2 90-min i.v. q3 weeks), range 6–14
  Median time to recovery from grade 3–4 neutropenia: 7 days
[1]; arm A (350 mg m^−2 90-min i.v. q3 weeks), range 6–17
  Median number of days to grade 3–4 nadir (neutropenia): 9 days
[1]; [6]
  Anaemia, Grade 3–4, %Cycles: 1%
  Anaemia, all grades, %Cycles: 87%
  Episodes of grade 3–4 neutropenia with duration <8 days: 77%
  Febrile neutropenia, %Cycles: 2%
  Febrile neutropenia, %Patients: 5%
  Leukocytopenia, Grade 3–4, %Cycles: 6%
  Leukocytopenia, all grades, %Cycles: 53%
  Neutropenia, Grade 3–4, %Cycles: 12%
  Neutropenia, all grades, %Cycles: 50%
  Number of patients with at least one grade 3–4 adverse event possibly or probably related to irinotecan: 11
  Patients with at least one grade 3–4 adverse event possibly or probably related to irinotecan, %: 30%
  Thrombocytopenia, Grade 3–4, %Cycles: 0/0%
  Thrombocytopenia, all grades, %Cycles: 6%
  Anaemia, Grade 3–4, %Patients: 3%
  Anaemia, all grades, %Patients: 92%
  Leukocytopenia, Grade 3–4, %Patients: 14%
  Leukocytopenia, all grades, %Patients: 68%
  Neutropenia, Grade 3–4, %Patients: 25%
  Neutropenia, all grades, %Patients: 61%
  Thrombocytopenia, Grade 3–4, %Patients: 0/0%
  Thrombocytopenia, all grades, %Patients: 11%
[1]; [7]
  Alopecia, all grades, % of patients: 43%
  Anorexia, all grades, % of patients: 14%
  Cholinergic syndrome, all grades, % of patients: 41 ^a %
  Diarrhoea, Grade 3–4, % of patients: 24%
  Diarrhoea, all grades, % of patients: 76%
  Fatigue, Grade 3–4, % of patients: 3%
  Fatigue, all grades, % of patients: 38%
  Fever in absence of infection, all grades, % of patients: 19%
  Gastrointestinal pain, Grade 3–4, % of patients: 3%
  Gastrointestinal pain, all grades, % of patients: 16%
  Infection, Grade 3–4, % of patients: 5%
  Infection, all grades, % of patients: 11%
  Nausea, Grade 3–4, % of patients: 5%
  Nausea, all grades, % of patients: 73%
  Vomiting, Grade 3–4, % of patients: 3%
  Vomiting, all grades, % of patients: 57%
[1]; arm B (125 mg m^−2 90-min i.v. weekly × 4 q6 weeks), range 2–15
  Median time to recovery from grade 3–4 neutropenia: 7 days
[1]; arm B (125 mg m^−2 90-min i.v. weekly × 4 q6 weeks), range 4–13
  Median number of days to grade 3–4 nadir (neutropenia): 7 days
[1]; [8]
  Anaemia, Grade 3–4, %Cycles: 4/4%
  Anaemia, all grades, %Cycles: 90%
  Discontinuation due to toxicity, main reason diarrhoea: 7%
  Episodes of grade 3–4 neutropenia with duration <8 days: 84%
  Febrile neutropenia, %Cycles: 1%
  Febrile neutropenia, %Patients: 7%
  Leukocytopenia, Grade 3–4, %Cycles: 6%
  Leukocytopenia, all grades, %Cycles: 56%
  Neutropenia, Grade 3–4, %Cycles: 20%
  Neutropenia, all grades, %Cycles: 57%
  Neutropenic infection, %Cycles: 1%
  Neutropenic infection, %Patients: 2%
  Number of patients with at least one grade 3–4 adverse event possibly or probably related to irinotecan: 14
  Patients who discontinued treatment due to toxicity (from the study drug): 11%
  Patients with at least one grade 3–4 adverse event possibly or probably related to irinotecan, %: 30%
  Thrombocytopenia, Grade 3–4, %Cycles: 0/0%
  Thrombocytopenia, all grades, %Cycles: 6%
  Anaemia, Grade 3–4, %Patients: 4/4%
  Anaemia, all grades, %Patients: 91%
  Leukocytopenia, Grade 3–4, %Patients: 15%
  Leukocytopenia, all grades, %Patients: 70%
  Neutropenia, Grade 3–4, %Patients: 28%
  Neutropenia, all grades, %Patients: 65%
  Thrombocytopenia, Grade 3–4, %Patients: 0/0%
  Thrombocytopenia, all grades, %Patients: 15%
[1]; [9]
  Alopecia, all grades, % of patients: 67 ^b %
  Anorexia, all grades, % of patients: 17%
  Cholinergic syndrome, Grade 3–4, % of patients: 2%
  Cholinergic syndrome, all grades, % of patients: 61 ^a %
  Diarrhoea, Grade 3–4, % of patients: 13%
  Diarrhoea, all grades, % of patients: 74%
  Fatigue, Grade 3–4, % of patients: 4%
  Fatigue, all grades, % of patients: 61%
  Fever in absence of infection, Grade 3–4, % of patients: 4%
  Fever in absence of infection, all grades, % of patients: 15%
  Gastrointestinal pain, Grade 3–4, % of patients: 2%
  Gastrointestinal pain, all grades, % of patients: 17%
  Infection, all grades, % of patients: 11%
  Nausea, Grade 3–4, % of patients: 9%
  Nausea, all grades, % of patients: 65%
  Vomiting, Grade 3–4, % of patients: 9%
  Vomiting, all grades, % of patients: 50%
[1]; arm C (250 mg m^−2 90-min i.v. q2 weeks), range 1–12
  Median time to recovery from grade 3–4 neutropenia: 7 days
[1]; arm C (250 mg m^−2 90-min i.v. q2 weeks), range 6–17
  Median number of days to grade 3–4 nadir (neutropenia): 7 days
[1]; [10]
  Anaemia, Grade 3–4, %Cycles: 0/0%
  Anaemia, all grades, %Cycles: 83%
  Discontinuation due to toxicity, main reason diarrhoea: 14%
  Discontinuation due to toxicity, main reason vomiting: 14%
  Episodes of grade 3–4 neutropenia with duration <8 days: 25%
  Leukocytopenia, Grade 3–4, %Cycles: 3%
  Leukocytopenia, all grades, %Cycles: 24%
  Neutropenia, Grade 3–4, %Cycles: 5%
  Neutropenia, all grades, %Cycles: 15%
  Neutropenic infection, %Cycles: 1%
  Neutropenic infection, %Patients: 2%
  Number of patients with at least one grade 3–4 adverse event possibly or probably related to irinotecan: 22
  Patients who discontinued treatment due to toxicity (from the study drug): 21%
  Patients with at least one grade 3–4 adverse event possibly or probably related to irinotecan, %: 50%
  Thrombocytopenia, Grade 3–4, %Cycles: 3%
  Thrombocytopenia, all grades, %Cycles: 8%
  Anaemia, Grade 3–4, %Patients: 0/0%
  Anaemia, all grades, %Patients: 91%
  Leukocytopenia, Grade 3–4, %Patients: 5%
  Leukocytopenia, all grades, %Patients: 30%
  Neutropenia, Grade 3–4, %Patients: 9%
  Neutropenia, all grades, %Patients: 23%
  Thrombocytopenia, Grade 3–4, %Patients: 5%
  Thrombocytopenia, all grades, %Patients: 9%
[1]; [11]
  Alopecia, all grades, % of patients: 34 ^b %
  Anorexia, Grade 3–4, % of patients: 5%
  Anorexia, all grades, % of patients: 34%
  Cholinergic syndrome, all grades, % of patients: 7 ^a %
  Diarrhoea, Grade 3–4, % of patients: 25%
  Diarrhoea, all grades, % of patients: 77%
  Fatigue, Grade 3–4, % of patients: 7%
  Fatigue, all grades, % of patients: 52%
  Fever in absence of infection, all grades, % of patients: 16%
  Gastrointestinal pain, Grade 3–4, % of patients: 2%
  Gastrointestinal pain, all grades, % of patients: 23%
  Infection, Grade 3–4, % of patients: 7%
  Infection, all grades, % of patients: 11%
  Nausea, Grade 3–4, % of patients: 23%
  Nausea, all grades, % of patients: 80%
  Vomiting, Grade 3–4, % of patients: 16%
  Vomiting, all grades, % of patients: 59%
[1]; arm D (10 mg m^−2 day^−1 14-day continuous infusion q3 weeks), range 4–4
  Median time to recovery from grade 3–4 neutropenia: 4 days
[1]; arm D (10 mg m^−2 day^−1 14-day continuous infusion q3 weeks), range 14–19
  Median number of days to grade 3–4 nadir (neutropenia): 16 days
[2]
  Irinotecan AUC: 12.8 ± 3.9 µM·h
[3]; ref Cunningham et al (1998)
  Median survival: 9.2 months
[3]; ref Rougier et al (1997)
  Median survival: 10.8 months
